ChEMBL document CHEMBL4052588, “Design of a Biased Potent Small Molecule Inhibitor of the Bromodomain and PHD Finger-Containing (BRPF) Proteins Suitable for Cellular and in Vivo Studies” (J Med Chem, 2017)

Experiments:
Peregrin (Homo sapiens) = biological target: T1, Peregrin (Homo sapiens) (UniProt P55201)
T1 sequence (whole entry): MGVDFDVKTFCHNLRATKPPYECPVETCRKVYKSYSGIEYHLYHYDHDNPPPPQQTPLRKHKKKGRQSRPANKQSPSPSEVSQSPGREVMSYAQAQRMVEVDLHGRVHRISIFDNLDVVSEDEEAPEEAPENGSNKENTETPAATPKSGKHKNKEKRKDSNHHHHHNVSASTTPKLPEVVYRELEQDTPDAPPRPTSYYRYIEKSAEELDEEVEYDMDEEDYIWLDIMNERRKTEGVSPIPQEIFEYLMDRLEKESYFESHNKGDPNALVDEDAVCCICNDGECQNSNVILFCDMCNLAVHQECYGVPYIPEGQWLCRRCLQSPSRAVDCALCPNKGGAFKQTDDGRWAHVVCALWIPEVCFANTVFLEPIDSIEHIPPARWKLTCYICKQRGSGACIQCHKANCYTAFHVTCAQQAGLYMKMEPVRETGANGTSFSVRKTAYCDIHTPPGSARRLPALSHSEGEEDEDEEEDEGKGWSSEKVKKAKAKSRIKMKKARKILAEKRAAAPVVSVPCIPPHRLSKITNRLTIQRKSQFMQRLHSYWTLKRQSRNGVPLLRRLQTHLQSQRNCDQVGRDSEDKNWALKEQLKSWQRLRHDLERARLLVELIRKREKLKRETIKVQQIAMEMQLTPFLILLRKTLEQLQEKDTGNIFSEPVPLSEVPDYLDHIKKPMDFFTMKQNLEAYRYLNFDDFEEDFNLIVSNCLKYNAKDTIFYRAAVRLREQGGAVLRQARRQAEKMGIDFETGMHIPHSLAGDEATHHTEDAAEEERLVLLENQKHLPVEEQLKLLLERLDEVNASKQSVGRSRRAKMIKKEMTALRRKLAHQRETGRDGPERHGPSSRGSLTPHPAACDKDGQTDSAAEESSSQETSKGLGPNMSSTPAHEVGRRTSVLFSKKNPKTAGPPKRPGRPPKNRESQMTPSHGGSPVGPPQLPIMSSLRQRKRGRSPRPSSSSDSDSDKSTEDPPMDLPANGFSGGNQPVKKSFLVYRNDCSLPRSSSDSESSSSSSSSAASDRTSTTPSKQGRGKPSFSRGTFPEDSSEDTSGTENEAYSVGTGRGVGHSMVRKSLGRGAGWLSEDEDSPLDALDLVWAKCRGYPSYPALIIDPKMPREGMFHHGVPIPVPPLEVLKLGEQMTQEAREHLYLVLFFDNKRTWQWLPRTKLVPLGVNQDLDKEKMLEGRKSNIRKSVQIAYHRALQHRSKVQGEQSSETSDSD

[1] = biological target: T2, Bromodomain-containing protein 4 (Homo sapiens, UniProt O60885)
[2] = biological target: T2, Bromodomain-containing protein 4; experiment: Inhibition of human BRD4-BD1 expressed in Escherichia coli BL21 after 1 hr by BROMOscan assay
[3] = biological target: T3, Bromodomain-containing protein 1 (Homo sapiens, UniProt O95696); experiment: Inhibition of human BRPF2-BRD1 expressed in Escherichia coli BL21 after 1 hr by BROMOscan assay
T3 sequence (O95696 whole entry): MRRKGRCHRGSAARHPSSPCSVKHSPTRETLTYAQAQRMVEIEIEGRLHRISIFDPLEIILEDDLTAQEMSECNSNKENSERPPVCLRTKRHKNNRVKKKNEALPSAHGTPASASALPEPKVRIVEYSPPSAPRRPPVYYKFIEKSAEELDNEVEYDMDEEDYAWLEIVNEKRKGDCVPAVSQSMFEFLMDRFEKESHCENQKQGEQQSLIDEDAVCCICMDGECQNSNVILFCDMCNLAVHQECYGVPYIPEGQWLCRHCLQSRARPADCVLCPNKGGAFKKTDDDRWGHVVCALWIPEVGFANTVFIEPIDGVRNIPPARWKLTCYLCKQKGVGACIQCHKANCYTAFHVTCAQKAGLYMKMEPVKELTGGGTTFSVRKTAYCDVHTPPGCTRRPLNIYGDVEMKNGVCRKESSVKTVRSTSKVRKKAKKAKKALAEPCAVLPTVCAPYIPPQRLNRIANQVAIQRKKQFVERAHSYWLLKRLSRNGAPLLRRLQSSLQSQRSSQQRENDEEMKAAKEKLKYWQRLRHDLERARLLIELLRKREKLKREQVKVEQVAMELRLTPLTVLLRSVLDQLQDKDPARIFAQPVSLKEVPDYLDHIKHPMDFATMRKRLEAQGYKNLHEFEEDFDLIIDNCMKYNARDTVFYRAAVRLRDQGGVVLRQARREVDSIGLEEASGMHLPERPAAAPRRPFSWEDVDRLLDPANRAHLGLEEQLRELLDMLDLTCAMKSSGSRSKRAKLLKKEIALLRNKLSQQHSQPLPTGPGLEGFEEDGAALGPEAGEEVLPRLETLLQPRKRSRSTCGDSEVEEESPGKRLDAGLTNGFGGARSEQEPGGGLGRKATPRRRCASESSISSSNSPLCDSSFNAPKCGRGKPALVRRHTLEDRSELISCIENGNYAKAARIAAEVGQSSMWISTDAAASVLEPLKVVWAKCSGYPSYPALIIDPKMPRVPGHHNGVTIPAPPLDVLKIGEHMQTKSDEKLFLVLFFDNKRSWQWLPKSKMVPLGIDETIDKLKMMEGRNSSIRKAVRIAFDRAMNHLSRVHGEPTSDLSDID

SMILES	ΔTm [1]	IC50 [2]	IC50 [3]	ΔTm (Peregrin (Homo sapiens))
COc1cc2c(cc1NS(=O)(=O)c1ccc(C#N)cc1)c(C)cc(=O)n2C	–	17 µM	1.8 µM	–
CCc1cc2cc(NS(=O)(=O)c3ccc(C#N)cc3)ccc2n(CC)c1=O	–	> 100 µM	> 100 µM	–
Cn1c(=O)ccc2cc(NS(=O)(=O)c3ccc(C#N)c(Cl)c3)ccc21	–	7.2 µM	0.45 µM	4.3 °C

The next lines start with results.

ΔTm [1]	IC50 [2]	IC50 [3]	SMILES	ΔTm (Peregrin (Homo sapiens))
0.4 °C	–	–	Cc1cc(C#N)ccc1S(=O)(=O)Nc1ccc2c(ccc(=O)n2C)c1	6.5 °C
0.95 °C	4.5 µM	0.048 µM	Cc1cc2cc(NS(=O)(=O)c3ccc(C#N)cc3)ccc2n(C)c1=O	–
–	4.6 µM	2.6 µM	COc1ccccc1C(=O)Nc1cc2cc(C)c(=O)n(C)c2cc1N1CCCC1	–
